Active and inactive are the calls of the source. The rule behind the calls is not given here.
System: Spodoptera littoralis
Assay: Insecticidal activity against Spodoptera littoralis after 6 days
Format: functional, organism-based

## C=C(C(=O)NCCCCNC(=O)/C=C/c1ccccc1)[C@@H](O)CO
  Activity: inactive

## CC1=CC(O)N(CCCCNC(=O)/C=C/c2ccccc2)C1=O (configuration not stated)
  Activity: inactive
